Measured values as given in patent publication US9028887B2, “Method improve spatial memory via pterostilbene administration” (The United States of America, as represented by the …, priority 2007, dated 2015).

Assays:
[1] = system: 19-month-old male Fischer 344 rats; test: Morris Water Maze, working memory version, in aged rats on pterostilbene diet; format: in vivo, rat; conditions: for distance to find the platform, Trial 1 vs Trial 2: days 3 and 4; for latency to find the platform, Trial 1 vs Trial 2: days 3 and 4, ninth week
Description: Forty-two 19-month-old male Fischer 344 rats were obtained from the NIA colony (Harlan Sprague Dawley, Indianapolis, Ind.). The rats were individually housed in stainless steel mesh suspended cages, provided food and water ad libitum, and maintained on a 12-hour light/dark cycle. The rats were given one week to adjust to their new environment, after which time they were weight matched and then randomly placed on one of three diets for 12-13 weeks total (n=14/group): control, low dose pterostilbene (0.004%, equivalent to 2.5 mg/kg body weight), or high dose pterostilbene (0.016%, equivalent to 10 mg/kg body weight). All animals were observed daily for clinical signs of disease.
The pterostilbene diets were prepared at Harlan Teklad (Madison, Wis.) by adding crystalline pterostilbene to the control diet, of 40 mg/kg diet, 0.004% w/w for low dose, 160 mg/kg diet, 0.016% w/w for high dose. The amount of corn in the control diet was adjusted to compensate for the added volume of the pterostilbene. The rats were maintained on either the control or pterostilbene diet for eight weeks before motor testing and nine weeks before cognitive testing at 21 months.
The Morris Water Maze (MWM) is a method to test spatial learning and memory of subjects. Developed by Richard Morris, the MWM is an age and diet sensitive learning paradigm that requires a subject to locate a hidden platform (10 cm in diameter) positioned below the surface (2 cm) of a circular pool of water (134 cm in diameter×50 cm in height, maintained at 23° C.) based on distal cues, and to remember its location from the previous trial. Accurate navigation is rewarded with escape from the water onto the platform, for which the subject uses distal cues such as posters, the experimenter, a computer, cage racks, to effectively locate. The working memory version of the MWM (Brandeis et al., 1989. Int J Neurosci. 48:29-69 Morris R., 1984. J Neurosci Methods. 11; 47-60.) was performed daily for four consecutive days during the ninth week of treatment, with a morning and an afternoon session, two trials each session, with a 10 minute inter-trial interval between the two trials. Rats were tested in a random manner, with the restriction that one subject from each group be tested in succession. At the beginning of each trial, the subject was gently immersed in the water at one of four randomized start locations. […] Once the subject reached the platform, it remained there for 15 sec (Trial 1; reference memory or acquisition trial). The subject was returned to its home cage between trials (10 min). Trial 2 (the working memory or retrieval trial) used the same platform location and start position as Trial 1. Performances were videotaped and analyzed with image tracking software (HVS Image, UK), which allows measurements of latency (sec) time to find the platform), path length (cm), and swimming speed (cm/sec; […]). A detailed description of the maze and the paradigm used is disclosed in Shukitt-Hale et al., 1998. Experimental Gerontology, 33:615-624, and incorporated herein by reference.

striatal slices = test: Oxotremorine enhancement of K+-evoked dopamine release from striatal slices of diet-fed rats; format: in vivo, rat; conditions: for dopamine release (oxotremorine-enhanced striatal K+-ERDA), H2O2-treated vs non-H2O2-treated: 50 μM H2O2, 500 μM oxotremorine
Description: The muscarinic enhancement of K^+-evoked dopamine release (K^+-ERDA) from superfused striatal slices is an indicator of receptor sensitivity and striatal function and is sensitive to aging and oxidative stress as disclosed in Joseph et al., 1988. Brain Res., 454:140-8: Joseph et al., 1988. Brain Res., 454:149-55; Joseph J., et al., 1990. Brain Res., 537:40-48; Joseph et al., 1996. Free Radic. Biol. Med., 20: 821-30 and herein incorporated by reference. Additionally, muscarinic enhancement of dopamine release is sensitive to dietary supplementation as disclosed in Joseph et al., 1998. J. Neurosci., 18: 8047-8055; Joseph et al., 1999. J. Neurosci., 19: 8114-8121; Youdim et al., 2000. Nutr Neurosci., 3: 383-97; Shukitt-Hale et al., 2005. Age., 27: 49-57; Shukitt-Hale et al., 2006. Nutrition, 22: 295-302 and herein incorporated by reference. The protective capacity of the striatal tissue obtained from the control and supplemented groups were assessed by examining differences in the oxotremorine-enhancement of striatal K^+-ERDA. Dopamine release was conducted 2-3 weeks following behavioral testing on freshly dissected and cross cut (300 μm, McIlwain tissue chopper) striatal slices from subject brains that were fed a high dose, low dose and control diet. The slices were placed in small glass vials containing modified Krebs-Ringer basal release medium (BRM) that had been bubbled for 30 min with 95% O2/5% CO2 and containing 21 mM NaHCO3, 3.4 mM glucose, 1.3 mM NaH2PO4, 1 mM EGTA, 0.93 mM MgCl2, 127 mM NaCl and 2.5 mM KCl (low KCl) (pH 7.4). Half of the tissue was treated with 50 μM […] to assess the effect of diet under conditions of oxidative stress. […] Following this equilibration period, the medium was switched to one containing (in mM) KCl 30 (high KCl), CaCl2.2H2O 1.26 (in place of EGTA), NaCl 57, and 0 or 500 μM oxotremorine and then the enhancement of K^+-ERDA was assessed. Dopamine release was quantitated by HPLC coupled to electrochemical detection and expressed as pmoles/mg protein as determined by the Lowry procedure.

cyclooxygenase-1 = cyclooxygenase-1 (Homo sapiens, UniProt P23219); conditions: Rimando et al., 2002; cited from earlier work
cyclooxygenase-1, sequence (P23219 24-599, species assumed): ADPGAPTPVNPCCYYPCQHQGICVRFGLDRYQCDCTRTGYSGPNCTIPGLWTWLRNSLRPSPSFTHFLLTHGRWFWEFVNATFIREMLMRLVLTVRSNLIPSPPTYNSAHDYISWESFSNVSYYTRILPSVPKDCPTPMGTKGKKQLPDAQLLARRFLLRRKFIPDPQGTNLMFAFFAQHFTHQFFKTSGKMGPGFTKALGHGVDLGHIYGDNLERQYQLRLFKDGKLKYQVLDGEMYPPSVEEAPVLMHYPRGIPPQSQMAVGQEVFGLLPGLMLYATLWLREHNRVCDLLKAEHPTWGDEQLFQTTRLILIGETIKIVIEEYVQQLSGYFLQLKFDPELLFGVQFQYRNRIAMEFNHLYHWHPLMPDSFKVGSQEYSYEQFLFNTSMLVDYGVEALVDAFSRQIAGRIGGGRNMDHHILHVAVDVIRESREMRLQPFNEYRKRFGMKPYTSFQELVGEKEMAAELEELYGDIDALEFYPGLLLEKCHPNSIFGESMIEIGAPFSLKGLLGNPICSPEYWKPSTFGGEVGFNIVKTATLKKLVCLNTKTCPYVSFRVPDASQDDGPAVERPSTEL

weanling male F344 rats = conditions: Suh et al., 2007; cited from earlier work
[2] = high dose diet 0.016% (10 mg/kg body weight)

SMILES: COc1cc(/C=C/c2ccc(O)cc2)cc(OC)c1 [pterostilbene, trans-3,5-dimethoxy-4′-hydroxystilbene]
- latency or distance to find the platform between the diet groups ([1]; Trial 1 or Trial 2, low and high dose vs control diet): no differences in latency or distance to find the platform
- distance to find the platform, Trial 1 vs Trial 2 [1, 2]: significant (p<0.05) differences in distance
- latency to find the platform, Trial 1 vs Trial 2 [1, 2]: significant (p<0.05) difference in latency
- distance to find the platform, Trial 1 vs Trial 2 ([1]; low dose diet 0.004% (2.5 mg/kg body weight)): significant (p<0.05) differences in distance
- latency to find the platform, Trial 1 vs Trial 2 ([1]; low dose diet 0.004% (2.5 mg/kg body weight), p=0.09): tended to improve from Trial 1 to Trial 2
- spatial memory performance compared to control diet fed group ([1]; pterostilbene diets (low and high dose)): improved spatial memory performance
- dopamine release (oxotremorine-enhanced striatal K+-ERDA) among diet groups (striatal slices; basal conditions (no H2O2), low and high dose vs control diet, p>0.05): no differences among the diet groups
- dopamine release (oxotremorine-enhanced striatal K+-ERDA), H2O2-treated vs non-H2O2-treated (striatal slices; high dose diet 0.016%): no differences were seen following H2O2 treatment
- dopamine release (oxotremorine-enhanced striatal K+-ERDA), H2O2-treated vs non-H2O2-treated (striatal slices; low dose diet 0.004%): no differences were seen following H2O2 treatment
- inhibition of cyclooxygenase-1 (cyclooxygenase-1): moderate inhibition
- azoxymethane-induced colonic aberrant crypt foci growth (weanling male F344 rats): suppressed azoxymethane-induced colonic aberrant crypt foci growth
